Reference: patent publication US20230038929A1, “Fused Tricyclic Heterocyclic Compounds and Uses Thereof” (Verge Analytics, Inc., priority 2019, published 2023)
Where a name gives a salt, the structure may show the parent alone.

molecular target: T1, Full length human recombinant PIKFYVE (Homo sapiens, UniProt Q9Y2I7, L932S/Q1183K/Q995L/S1033A/S696N/T998S); test: Inhibition of PIKfyve (microfluidic electrophoresis kinase assay); type: biochemical; details: 2 nM enzyme, 1 μM PI3P, 3 h at room temperature, 12 concentrations; read-out: PIKfyve IC50
T1 construct: Full length human recombinant PIKFYVE; purchased Carna Biosciences (Kobe, Japan); host or cells: baculovirus expression system (insect cells)
Method: Biological Example 1: Inhibition of PIKfyve
Full length human recombinant PIKFYVE expressed in baculovirus expression system as N-terminal GST-fusion protein (265 kDa) was obtained from Carna Biosciences (Kobe, Japan). The kinase substrate was prepared by mixing and sonicating fluorescently-labeled phosphatidylinositol 3-phosphate (PI3P) with phospho-L-serine (PS) at a 1:10 ratio in 50 mM HEPES buffer pH7.5.
The kinase reactions were assembled in 384-well plates (Greiner) in a total volume of […] as follows. Kinase protein was pre-diluted in an assay buffer comprising 25 mM HEPES, pH 7.5, 1 mM DTT, 2.5 mM MgCl2, and 2.5 mM MnCl2, and 0.005% Triton X-100, and dispensed into a 384-well plate (10 μL per well). Test compounds were serially pre-diluted in DMSO and added to the protein samples by acoustic dispensing (Labcyte Echo). The concentration of DMSO was equalized to 1% in all samples. All test compounds were tested at 12 concentrations. Apilimod was used as a reference compound and was tested in identical manner in each assay plate. Control samples (0%-inhibition, in the absence of inhibitor, DMSO only) and 100%-inhibition (in the absence of enzyme) were assembled in replicates of four and were used to calculate %-inhibition in the presence of compounds. The reactions were initiated by addition of 10 μL of 2× PI3P/PS substrate supplemented with ATP. The final concentration of enzyme was 2 nM, the final concentration of ATP was […], and the final concentration of PI3P/PS substrate was 1 μM (PI3P). The kinase reactions were allowed to proceed for 3 h at room temperature. Following incubation, the reactions were quenched by addition of […] of termination buffer (100 mM HEPES, pH 7.5, 0.01% Triton X-100, 20 mM EDTA). Terminated plates were analyzed on a microfluidic electrophoresis instrument (Caliper LabChip® 3000, Caliper Life Sciences/Perkin Elmer). The change in the relative fluorescence intensity of the PI(3)P substrate and PI(3,5)P product peaks was measured. The activity in each test sample was determined as the product to sum ratio (PSR): P/(S+P), where P is the peak height of the product, and S is the peak height of the substrate. Percent inhibition (Pinh) was determined using the following equation:
Pinh=(PSR0%inh−PSRcompound)/(PSR0%inh−P100%inh)*100
in which PSRcompound is the product/sum ratio in the presence of compound, PSR0%inh is the product/sum ratio in the absence of compound, and the PSR100%inh is the product/sum ratio in the absence of the enzyme. To determine the ICso of test compounds (50%-inhibition) the %-inh cdata (Pinh versus compound concentration) were fitted by a four-parameter sigmoid dose-response model using XLfit software (IDBS).

T1 sequence (Q9Y2I7 whole entry S696N/L932S/Q995L/T998S/S1033A/Q1183K): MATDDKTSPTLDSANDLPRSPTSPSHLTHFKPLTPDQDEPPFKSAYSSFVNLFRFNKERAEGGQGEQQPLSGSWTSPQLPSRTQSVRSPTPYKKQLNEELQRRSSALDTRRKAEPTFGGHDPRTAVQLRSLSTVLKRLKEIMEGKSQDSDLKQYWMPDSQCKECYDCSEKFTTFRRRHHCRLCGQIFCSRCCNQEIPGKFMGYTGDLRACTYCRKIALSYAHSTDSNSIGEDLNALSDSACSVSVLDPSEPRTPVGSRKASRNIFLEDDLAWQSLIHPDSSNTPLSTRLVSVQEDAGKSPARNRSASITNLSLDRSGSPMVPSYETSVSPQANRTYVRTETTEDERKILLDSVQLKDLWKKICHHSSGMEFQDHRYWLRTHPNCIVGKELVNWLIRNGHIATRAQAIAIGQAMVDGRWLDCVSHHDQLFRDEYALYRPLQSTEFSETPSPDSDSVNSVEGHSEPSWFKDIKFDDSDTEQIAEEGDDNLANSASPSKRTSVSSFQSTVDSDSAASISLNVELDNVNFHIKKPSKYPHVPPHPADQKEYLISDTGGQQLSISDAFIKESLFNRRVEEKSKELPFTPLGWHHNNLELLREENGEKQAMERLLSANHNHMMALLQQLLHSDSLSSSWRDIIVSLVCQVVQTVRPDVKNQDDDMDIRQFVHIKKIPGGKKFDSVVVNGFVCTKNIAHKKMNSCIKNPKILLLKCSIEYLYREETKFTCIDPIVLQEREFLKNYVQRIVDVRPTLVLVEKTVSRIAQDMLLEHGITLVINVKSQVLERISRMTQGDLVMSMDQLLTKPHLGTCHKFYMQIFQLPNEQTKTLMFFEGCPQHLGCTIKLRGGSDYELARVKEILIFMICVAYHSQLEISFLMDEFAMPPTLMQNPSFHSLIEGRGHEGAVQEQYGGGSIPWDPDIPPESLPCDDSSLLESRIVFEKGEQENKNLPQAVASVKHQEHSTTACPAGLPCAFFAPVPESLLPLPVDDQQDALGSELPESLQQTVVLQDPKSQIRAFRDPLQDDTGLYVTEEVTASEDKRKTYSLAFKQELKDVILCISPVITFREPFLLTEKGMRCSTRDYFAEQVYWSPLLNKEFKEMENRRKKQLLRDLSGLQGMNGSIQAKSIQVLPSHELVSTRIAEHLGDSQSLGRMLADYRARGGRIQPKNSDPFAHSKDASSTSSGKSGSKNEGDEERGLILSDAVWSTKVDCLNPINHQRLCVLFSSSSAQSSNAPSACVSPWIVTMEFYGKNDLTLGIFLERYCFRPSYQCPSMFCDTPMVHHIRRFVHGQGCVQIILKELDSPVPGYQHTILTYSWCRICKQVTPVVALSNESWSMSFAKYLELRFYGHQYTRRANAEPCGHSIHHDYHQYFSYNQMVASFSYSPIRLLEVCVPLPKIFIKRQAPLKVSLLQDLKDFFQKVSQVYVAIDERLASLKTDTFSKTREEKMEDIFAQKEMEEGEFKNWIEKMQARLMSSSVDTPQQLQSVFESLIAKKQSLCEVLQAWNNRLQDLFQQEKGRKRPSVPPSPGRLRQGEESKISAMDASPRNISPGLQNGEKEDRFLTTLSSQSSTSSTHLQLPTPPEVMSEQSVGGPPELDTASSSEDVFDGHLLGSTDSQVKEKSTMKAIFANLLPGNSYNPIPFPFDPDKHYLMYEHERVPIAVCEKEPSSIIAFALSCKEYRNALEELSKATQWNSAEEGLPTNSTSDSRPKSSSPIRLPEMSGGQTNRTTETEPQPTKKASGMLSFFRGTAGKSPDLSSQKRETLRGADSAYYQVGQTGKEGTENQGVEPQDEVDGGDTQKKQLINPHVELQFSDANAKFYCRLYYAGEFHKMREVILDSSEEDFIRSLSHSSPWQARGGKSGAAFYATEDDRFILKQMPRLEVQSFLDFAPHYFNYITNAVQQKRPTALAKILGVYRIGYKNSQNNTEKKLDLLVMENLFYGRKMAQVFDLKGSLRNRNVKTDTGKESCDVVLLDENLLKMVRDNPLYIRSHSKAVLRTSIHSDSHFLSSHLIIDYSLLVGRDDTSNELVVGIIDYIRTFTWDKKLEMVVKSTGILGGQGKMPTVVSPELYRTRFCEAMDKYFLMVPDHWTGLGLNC

Row | SMILES | IC50 [nM]
1 | CN(C)CCCOc1ccc2c(n1)oc1c(N3CCOCC3)nc(Nc3cc(-c4ccccc4)n[nH]3)nc12 [Example 23, 7-(3-(dimethylamino)propoxy)-4-morpholino-N-(3-phenyl-1H-pyrazol-5-yl)pyrido[3′,2′:4,5]furo[3,2-d]pyrimidin-2-amine hydrochloride] | 20
2 | c1ccc(-c2cc(Nc3nc(N4CCOCC4)c4oc5nc(OCCN6CCOCC6)ccc5c4n3)[nH]n2)cc1 [Example 24, 4-morpholino-7-(2-morpholinoethoxy)-N-(3-phenyl-1H-pyrazol-5-yl)pyrido[3′,2′:4,5]furo[3,2-d]pyrimidin-2-amine hydrochloride] | 61
3 | c1ccc(-c2cc(Nc3nc(N4CCOCC4)c4oc5nc(OCCCN6CCOCC6)ccc5c4n3)[nH]n2)cc1 [Example 25, 4-morpholino-7-(3-morpholinopropoxy)-N-(3-phenyl-1H-pyrazol-5-yl)pyrido[3′,2′:4,5]furo[3,2-d]pyrimidin-2-amine hydrochloride] | 14
4 | c1ccc(-c2cc(Nc3nc(N4CCOCC4)c4oc5nc(OCCN6CCCC6)ccc5c4n3)[nH]n2)cc1 [Example 26, 4-morpholino-N-(3-phenyl-1H-pyrazol-5-yl)-7-(2-(pyrrolidin-1-yl)ethoxy)pyrido[3′,2′:4,5]furo[3,2-d]pyrimidin-2-amine hydrochloride] | 82
5 | c1ccc(-c2cc(Nc3nc(N4CCOCC4)c4oc5nc(OCCCN6CCCC6)ccc5c4n3)[nH]n2)cc1 [Example 27, 4-morpholino-N-(3-phenyl-1H-pyrazol-5-yl)-7-(3-(pyrrolidin-1-yl)propoxy)pyrido[3′,2′:4,5]furo[3,2-d]pyrimidin-2-amine hydrochloride] | 16
6 | CN1CCN(CCOc2ccc3c(n2)oc2c(N4CCOCC4)nc(Nc4cc(-c5ccccc5)n[nH]4)nc23)CC1 [Example 28, 7-(2-(4-methylpiperazin-1-yl)ethoxy)-4-morpholino-N-(3-phenyl-1H-pyrazol-5-yl)pyrido[3′,2′:4,5]furo[3,2-d]pyrimidin-2-amine hydrochloride] | 46
7 | CN1CCN(CCCOc2ccc3c(n2)oc2c(N4CCOCC4)nc(Nc4cc(-c5ccccc5)n[nH]4)nc23)CC1 [Example 29, 7-(3-(4-methylpiperazin-1-yl)propoxy)-4-morpholino-N-(3-phenyl-1H-pyrazol-5-yl)pyrido[3′,2′:4,5]furo[3,2-d]pyrimidin-2-amine hydrochloride] | 3
8 | COc1ccc2c(n1)oc1c(N3CCOCC3)nc(Nc3cc(-c4ccccc4)n[nH]3)nc12 [Example 30, 7-methoxy-4-morpholino-N-(3-phenyl-1H-pyrazol-5-yl)pyrido[3′,2′:4,5]furo[3,2-d]pyrimidin-2-amine hydrochloride] | 163
9 | c1cncc(-c2cc(Nc3nc(N4CCOCC4)c4oc5ncccc5c4n3)[nH]n2)c1 [Example 31, 4-morpholino-N-(3-(pyridin-3-yl)-1H-pyrazol-5-yl)pyrido[3′,2′:4,5]furo[3,2-d]pyrimidin-2-amine hydrochloride] | 1090
10 | Cc1cncc(-c2cc(Nc3nc(N4CCOCC4)c4oc5ncccc5c4n3)[nH]n2)c1 [Example 32, N-(3-(5-methylpyridin-3-yl)-1H-pyrazol-5-yl)-4-morpholinopyrido[3′,2′:4,5]furo[3,2-d]pyrimidin-2-amine hydrochloride] | 825
11 | Cc1cccc(-c2cc(Nc3nc(N4CCOCC4)c4oc5ncccc5c4n3)[nH]n2)n1 [Example 33, N-(3-(6-methylpyridin-2-yl)-1H-pyrazol-5-yl)-4-morpholinopyrido[3′,2′:4,5]furo[3,2-d]pyrimidin-2-amine hydrochloride] | 261
12 | COc1cccc(-c2cc(Nc3nc(N4CCOCC4)c4oc5ncccc5c4n3)[nH]n2)c1 [Example 34, N-(3-(3-methoxyphenyl)-1H-pyrazol-5-yl)-4-morpholinopyrido[3′,2′:4,5]furo[3,2-d]pyrimidin-2-amine hydrochloride] | 303
